Test results as given in PubChem BioAssay (NCI).
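How tested: cells in 96-well plates exposed to compound for 48 hours at five concentrations. Here, GI50 denotes the concentration required for 50% inhibition of growth. TGI marks complete inhibition of growth.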

Columns and labels:
Experiment in all cases: growth of human tumour cells (NCI), 48 h
[1] = tested on: SNB-75 CNS
[2] = tested on: UACC-62 melanoma
[3] = tested on: HT29 colon
[4] = tested on: EKVX NSCLC
[5] = tested on: PC-3 prostate
[6] = tested on: OVCAR-8 ovarian
[7] = tested on: SF-295 CNS
[8] = tested on: OVCAR-5 ovarian
[9] = tested on: NCI-H226 lung
[10] = tested on: OVCAR-3 ovarian
[11] = tested on: KM12 colon
[12] = tested on: TK-10 renal
[13] = tested on: MDA-MB-435
[14] = tested on: SK-OV-3 ovarian
[15] = tested on: HCT-116 colon
[16] = tested on: A498 renal
[17] = tested on: A549 NSCLC
[18] = tested on: UACC-257 melanoma
[19] = tested on: RPMI-8226 leukemia
[20] = tested on: SN12C renal
[21] = tested on: SF-268 CNS
[22] = tested on: SK-MEL-28 melanoma
[23] = tested on: MDA-MB-468 breast
[24] = tested on: MALME-3M melanoma
[25] = tested on: U251 CNS
[26] = tested on: 786-0 renal
[27] = tested on: CAKI-1 renal
[28] = tested on: COLO 205 colon
[29] = tested on: SR leukemia
[30] = tested on: K-562 leukemia
[31] = tested on: MOLT-4 leukemia
[32] = tested on: SNB-19 CNS
[33] = tested on: BT-549 breast
[34] = tested on: M14 melanoma
[35] = tested on: T-47D breast
[36] = tested on: LOX IMVI melanoma
[37] = tested on: HL-60(TB) leukemia
[38] = tested on: HS 578T breast
[39] = tested on: MCF7 breast
[40] = tested on: UO-31 renal
[41] = tested on: OVCAR-4 ovarian
[42] = tested on: IGROV1 ovarian
[43] = tested on: DU-145 prostate
[44] = tested on: ACHN renal
[45] = tested on: HOP-92 NSCLC
[46] = tested on: SW-620 colon
[47] = tested on: NCI-H460 lung
[48] = tested on: RXF 393 renal
[49] = tested on: NCI-H522 lung
[50] = tested on: NCI-H23 lung
[51] = tested on: HOP-62 NSCLC
[52] = tested on: CCRF-CEM leukemia
[53] = tested on: NCI/ADR-RES ovarian
[54] = tested on: SF-539 CNS
[55] = tested on: HCT-15 colon
[56] = tested on: HCC-2998 colon
[57] = tested on: SK-MEL-5 melanoma
[58] = tested on: MDA-MB-231 breast
[59] = tested on: SK-MEL-2 melanoma

COc1ccc2oc3c4[nH]c5ccccc5c4c4c(c3c2c1)C(=O)N(C(=O)OC(C)(C)C)C4=O
GI50 [1]: 3.07 µM | TGI [1]: 33.8 µM | GI50 [2]: 2.4 µM | TGI [2]: 11.9 µM | GI50 [3]: 2.98 µM | TGI [3]: > 100 µM | GI50 [4]: 3.33 µM | TGI [4]: 32.2 µM | GI50 [5]: 1.88 µM | TGI [5]: > 100 µM | GI50 [6]: 2.4 µM | TGI [6]: 11.1 µM | GI50 [7]: 2.62 µM | TGI [7]: 10.9 µM | GI50 [8]: 2.06 µM | TGI [8]: 31 µM | GI50 [9]: 2.52 µM | TGI [9]: 24.1 µM | GI50 [10]: 3.72 µM | TGI [10]: 16.7 µM | GI50 [11]: 0.578 µM | TGI [11]: 9.28 µM | GI50 [12]: 2.56 µM | TGI [12]: > 100 µM | GI50 [13]: 1.43 µM | TGI [13]: 18.3 µM | GI50 [14]: 2.59 µM | TGI [14]: 24.3 µM | GI50 [15]: 3.06 µM | TGI [15]: 24.2 µM | GI50 [16]: 1.47 µM | TGI [16]: 9.77 µM | GI50 [17]: 2.84 µM | TGI [17]: 49.3 µM | GI50 [18]: 2.49 µM | TGI [18]: 9.3 µM | GI50 [19]: 1.83 µM | TGI [19]: 8.29 µM | GI50 [20]: 2.25 µM | TGI [20]: 37.2 µM | GI50 [21]: 3.11 µM | TGI [21]: 41.6 µM | GI50 [22]: 1.67 µM | TGI [22]: 5.18 µM | GI50 [23]: 2.84 µM | TGI [23]: 22 µM | GI50 [24]: 1.91 µM | TGI [24]: 11.3 µM | GI50 [25]: 2.86 µM | TGI [25]: 28.2 µM | GI50 [26]: 3.65 µM | TGI [26]: > 100 µM | GI50 [27]: 2.59 µM | TGI [27]: 37.4 µM | GI50 [28]: 3.03 µM | TGI [28]: 10.3 µM | GI50 [29]: 1.59 µM | TGI [29]: > 100 µM | GI50 [30]: 2.79 µM | TGI [30]: > 100 µM | GI50 [31]: 1.47 µM | TGI [31]: 5.01 µM | GI50 [32]: 4.21 µM | TGI [32]: > 100 µM | GI50 [33]: 2.09 µM | TGI [33]: 10.1 µM | GI50 [34]: 1.22 µM | TGI [34]: 5 µM | GI50 [35]: 1.28 µM | TGI [35]: 7.23 µM | GI50 [36]: 3.05 µM | TGI [36]: 14.1 µM | GI50 [37]: 2.28 µM | TGI [37]: 9.07 µM | GI50 [38]: 2.5 µM | TGI [38]: 12.4 µM | GI50 [39]: 1.43 µM | TGI [39]: 12.8 µM | GI50 [40]: 0.9 µM | TGI [40]: 25.8 µM | GI50 [41]: 4.18 µM | TGI [41]: 89.2 µM | GI50 [42]: 2.4 µM | TGI [42]: 27.6 µM | GI50 [43]: 3.26 µM | TGI [43]: > 100 µM | GI50 [44]: 1.49 µM | TGI [44]: 9.22 µM | GI50 [45]: 2.64 µM | TGI [45]: 41.3 µM | GI50 [46]: 2.33 µM | TGI [46]: > 100 µM | GI50 [47]: 2.32 µM | TGI [47]: > 100 µM | GI50 [48]: 3.12 µM | TGI [48]: 19.2 µM | GI50 [49]: 2.2 µM | TGI [49]: 11.6 µM | GI50 [50]: 2.1 µM | TGI [50]: 10.6 µM | GI50 [51]: 2.45 µM | TGI [51]: 12.2 µM | GI50 [52]: 2.65 µM | TGI [52]: > 100 µM | GI50 [53]: 2.6 µM | TGI [53]: 15.4 µM | GI50 [54]: 3.12 µM | TGI [54]: 11.5 µM | GI50 [55]: 2.12 µM | TGI [55]: 10.4 µM | GI50 [56]: 3.98 µM | TGI [56]: > 100 µM | GI50 [57]: 4.09 µM | TGI [57]: 16.1 µM | GI50 [58]: 6.45 µM | TGI [58]: > 100 µM | GI50 [59]: 2.84 µM | TGI [59]: 10.2 µM

CN1CCc2c(sc3ncnc(N/N=C/c4cccc(Cl)c4Cl)c23)C1
GI50 [1]: 5.12 µM | TGI [1]: 21.4 µM | GI50 [2]: > 24 µM | TGI [2]: > 24 µM | GI50 [3]: 4.16 µM | TGI [3]: 9.55 µM | GI50 [4]: 5.09 µM | TGI [4]: 17.6 µM | GI50 [5]: > 24 µM | TGI [5]: > 24 µM | GI50 [6]: 5.81 µM | TGI [6]: 17.8 µM | GI50 [7]: 3.82 µM | TGI [7]: 8.23 µM | GI50 [8]: 8.14 µM | TGI [8]: > 24 µM | GI50 [9]: 11.6 µM | TGI [9]: > 24 µM | GI50 [10]: 4.77 µM | TGI [10]: 13.8 µM | GI50 [11]: > 24 µM | TGI [11]: > 24 µM | GI50 [12]: 5.5 µM | TGI [12]: 18.2 µM | GI50 [13]: 13.6 µM | TGI [13]: > 24 µM | GI50 [14]: > 24 µM | TGI [14]: > 24 µM | GI50 [15]: 4.49 µM | TGI [15]: 11.2 µM | GI50 [16]: > 24 µM | TGI [16]: > 24 µM | GI50 [17]: 7.79 µM | TGI [17]: > 24 µM | GI50 [18]: > 24 µM | TGI [18]: > 24 µM | GI50 [19]: 6.69 µM | TGI [19]: > 24 µM | GI50 [20]: 5.58 µM | TGI [20]: 16.8 µM | GI50 [21]: 10.7 µM | TGI [21]: > 24 µM | GI50 [22]: 13.7 µM | TGI [22]: > 24 µM | GI50 [23]: 3.19 µM | TGI [23]: 10.6 µM | GI50 [24]: 7.15 µM | TGI [24]: > 24 µM | GI50 [25]: 4.83 µM | TGI [25]: 10.8 µM | GI50 [26]: 4.79 µM | TGI [26]: 10 µM | GI50 [27]: 4.49 µM | TGI [27]: 11.4 µM | GI50 [28]: 4.34 µM | TGI [28]: 9.78 µM | GI50 [29]: 3.54 µM | TGI [29]: > 24 µM | GI50 [30]: 4.42 µM | TGI [30]: 15.1 µM | GI50 [31]: 7.65 µM | TGI [31]: > 24 µM | GI50 [32]: 5.61 µM | TGI [32]: 18.2 µM | GI50 [33]: 4.13 µM | TGI [33]: > 24 µM | GI50 [34]: 12.8 µM | TGI [34]: > 24 µM | GI50 [35]: 5.55 µM | TGI [35]: 18.3 µM | GI50 [36]: 3.52 µM | TGI [36]: 6.83 µM | GI50 [37]: 4.01 µM | TGI [37]: 10 µM | GI50 [38]: 6.56 µM | TGI [38]: 22.9 µM | GI50 [39]: 4.89 µM | TGI [39]: 17.6 µM | GI50 [40]: 6.39 µM | TGI [40]: > 24 µM | GI50 [41]: 6.54 µM | TGI [41]: > 24 µM | GI50 [42]: 5.68 µM | TGI [42]: 15.4 µM | GI50 [43]: 8.34 µM | TGI [43]: > 24 µM | GI50 [44]: 3.68 µM | TGI [44]: 7.89 µM | GI50 [45]: 4.92 µM | TGI [45]: > 24 µM | GI50 [46]: 7.79 µM | TGI [46]: > 24 µM | GI50 [47]: 7.54 µM | TGI [47]: > 24 µM | GI50 [48]: 3.19 µM | TGI [48]: 12.3 µM | GI50 [49]: 9.89 µM | TGI [49]: > 24 µM | GI50 [50]: 5.24 µM | TGI [50]: 15.4 µM | GI50 [51]: 4.45 µM | TGI [51]: 10.7 µM | GI50 [52]: 4.41 µM | TGI [52]: > 24 µM | GI50 [53]: 4.76 µM | TGI [53]: 15.3 µM | GI50 [54]: 3.83 µM | TGI [54]: 7.3 µM | GI50 [55]: 4.76 µM | TGI [55]: 17.1 µM | GI50 [56]: 4.47 µM | TGI [56]: 10.7 µM | GI50 [57]: 12.9 µM | TGI [57]: > 24 µM | GI50 [58]: 3.88 µM | TGI [58]: 8.01 µM | GI50 [59]: > 24 µM | TGI [59]: > 24 µM
